Here are results for three molecules from paper PMC7718273 (Scientific Reports, 2020).

The subject of one test is CDAHFD NASH mouse model. The experiment in a line: In vivo study using CDAHFD mice (NASH model). Further details: species or system C57BL/6J mice. To be noted: positive control 3 mg/kg p.o. for 10 weeks. As for the experimental part: C57BL/6J mice were fed normal chow diet (n = 5) or choline-deficient, L-amino acid-defined, high-fat diet (CDAHFD) for 4 weeks to induce NASH (n = 8–10/group). […] (a) Relative FAP activity was assessed by FRET-quench and serum FGF21 level at week 14. […] (c) Steatosis scores ranged from 0 to 3 (normal = 0, minimal = 1, moderate = 2, marked = 3) were determined. Hepatic steatosis and fibrosis (Picrosirius red stain) were analyzed in a blinded manner or by digital image analyzer. (d–e) Histological evaluations of liver tissue were performed in each group. Paraffin-embedded liver sections were stained with H&E (d) and Sirius red (e). Representative photographs of each group were presented. Images were obtained at 100x (Scale bar = 50 µm).
Male C57BL/6J mice (5 weeks of age) were fed with a CDAHFD consisting of 60% kcal fat and 0.1% methionine. […] For the CDAHFD model, compound treatments were started at the beginning of week 4 on the diet and continued until week 14. […] Liver tissue was then collected. All other measurements were done similarly as described above. Staining was performed using H&E and Picrosirius red as described previously. Areas of positive Sirius red were quantified by computer-based morphometric analysis.

Another test concerns diet-induced obese mice. Further details: method as in PMID 27689014. Particulars: cited from earlier work.
The next test deals with ob/ob mice. The experiment in a line: Acute study using ob/ob mice: blood glucose and intact hFGF21. Particulars: hFGF21 0.1 mg/kg i.p. alone.
The mark [1] stands for this setting: animals administered with Talabostat alone.

Entries after “also recorded” stand apart in the source; their conditions may differ.

Method for ob/ob mice: Blood was collected at the indicated time points. (a) Nonfasting blood glucose levels were measured at the indicated time points. […] (c) Plasma intact hFGF21 levels were measured using ELISA kit at 1, 3, 6, and 9 h. All data are the means ± S.D. *P < 0.05, **P < 0.01 and *** P < 0.001 vs. vehicle group.
Blood was promptly collected by orbital bleeding that was allowed to clot, and supernatant was collected after centrifugation at 4 °C at 3000 rpm. Serum intact FGF21 concentrations were measured by intact hFGF21 ELISA (Alpco, Keewaydin Dr, Salem, NH, catalog no. 43-FGFHU-E01)[29].

`O=C(O)c1cc(F)c2nc(N3[C@@H]4CC[C@H]3C[C@@H](OCc3c(-c5ccccc5OC(F)(F)F)noc3C3CC3)C4)sc2c1` [LJN, Tropifexor, reference compound]: the “all parameters of the CDAHFD study” value with CDAHFD NASH mouse model is given as “All parameters showed improvements”.

Take `CC(C)[C@H](N)C(=O)N1CCC[C@H]1B(O)O` [Talabostat]: in the test with diet-induced obese mice (setting [1]), the adiposity entry is listed as “decreased”, the body weight result is “decreased” and the food consumption result is “decreased”. Besides, in the test on diet-induced obese mice (diet-induced obese mice), the “endogenous intact FGF21 level” value is “increased” and the “insulin resistance / insulin sensitivity” value is listed as “improved insulin resistance; also recorded: improved insulin sensitivity”.

B1: hFGF21: full-length recombinant human FGF21 from Cell Science, given i.p. alone or with BR103354 (protein, UniProt Q9NSA1 29-209, looked up)
Fibroblast growth factor 21: HPIPDSSPLLQFGGQVRQRYLYTDDAQQTEAHLEIREDGTVGGAADQSPESLLQLKALKPGVIQILGVKTSRFLCQRPDGALYGSLHFDPEACSFRELLLEDGYNVYQSEAHGLPLHLPGNKSPHRDPAPRGPARFLPLPGLPPALPEPPGILAPQPPDVGSSDPLSMVGPSQGRSPSYAS
As to B1, in the test with ob/ob mice, the “decrease of blood glucose AUC” value is recorded as “about 20%”. In addition, in the test on ob/ob mice (3 h, starting from 340 mg/dL), the “nonfasting blood glucose level, maximum average reduction to” value was 230 mg/dL.
